Data published in US20100311749A1, “4-BENZOYL-1-SUBSTITUTED-PIPERAZIN-2-ONE DERIVATIVES AS P2X7 MODULATORS” (priority 2007, published 2010).
Structures can show the parent of a compound that is named as a salt.

Biological target: T1, human P2X7 receptor (Homo sapiens, UniProt Q99572)
T1 construct: expressed in transfected cells
T1 sequence (Q99572 1-595): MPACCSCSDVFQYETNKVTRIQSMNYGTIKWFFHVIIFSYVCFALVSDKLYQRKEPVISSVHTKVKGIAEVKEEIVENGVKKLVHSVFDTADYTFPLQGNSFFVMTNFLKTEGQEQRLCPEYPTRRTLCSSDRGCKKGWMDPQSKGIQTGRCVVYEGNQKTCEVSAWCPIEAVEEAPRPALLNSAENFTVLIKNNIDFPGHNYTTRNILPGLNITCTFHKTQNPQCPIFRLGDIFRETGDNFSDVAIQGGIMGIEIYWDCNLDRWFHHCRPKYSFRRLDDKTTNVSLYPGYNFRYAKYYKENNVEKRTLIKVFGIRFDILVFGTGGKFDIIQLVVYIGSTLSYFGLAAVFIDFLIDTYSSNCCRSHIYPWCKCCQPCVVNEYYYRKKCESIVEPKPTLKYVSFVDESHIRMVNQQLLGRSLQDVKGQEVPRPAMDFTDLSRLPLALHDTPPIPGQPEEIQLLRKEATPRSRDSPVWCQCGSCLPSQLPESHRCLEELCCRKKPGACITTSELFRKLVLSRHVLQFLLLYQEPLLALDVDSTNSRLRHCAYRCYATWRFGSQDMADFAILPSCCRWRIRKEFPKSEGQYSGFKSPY
Experiment: Ethidium Accumulation Assay
Assay type: cell-based
Settings: HEK293 cells stably expressing human recombinant P2X7 receptors; 1 mM ATP; values given as 'about'; read-out: pIC50 for human P2X7 receptor antagonist activity (blocking ATP responses) in the Ethidium Accumulation Assay (converted)
Method: Studies were performed using NaCl assay buffer of the following composition: 140 mM NaCl, 10 mM HEPES [4-(2-hydroxyethyl)-1-piperazine-1-ethanesulfonic acid], 5 mM N-methyl-D-glucamine, 5.6 mM KCl, 10 mM D-glucose, 0.5 mM CaCl2 (pH 7.4).
Human Embryonic Kidney (HEK) 293 cells, stably expressing human recombinant P2X7 receptors, were grown in poly-D-lysine pre-treated 96 well plates for 18-24 hours. […] The cells were washed twice with 350 μl of the assay buffer, before addition of 50 μl of the assay buffer containing the putative P2X7 receptor antagonist compound. (A small amount of dimethyl sulfoxide, for initially dissolving the compound, is optionally used and present in this 50 μl test compound sample.) The cells were then incubated at room temperature (19-21° C.) for 30 min before addition of ATP and ethidium (100 μM final assay concentration). The ATP concentration was chosen to be close to the EC80 for the receptor type and was 1 mM for studies on the human P2X7 receptor. Incubations were continued for 8 or 16 min and were terminated by addition of 25 μl of 1.3M sucrose containing 4 mM of the P2X7 receptor antagonist Reactive Black 5 (Aldrich). […] Antagonist pIC50 values for blocking ATP responses were determined using iterative curve fitting techniques.

`N#Cc1cc(F)ccc1N1CCN(C(=O)c2cccc(Cl)c2Cl)CC1=O` [Example 38, 2-{-4-[(2,3-dichlorophenyl)carbonyl]-2-oxo-1-piperazinyl}-5-fluorobenzonitrile] and `Cc1cc(F)ccc1N1CCN(C(=O)c2cccc(Cl)c2Cl)CC1=O` [Example 28, 4-[(2,3-dichlorophenyl)carbonyl]-1-(4-fluoro-2-methylphenyl)-2-piperazinone] fall in the same range of IC50: 2.51 to 100 nM for the first, 2.51 to 100 nM for the second.

`O=C(c1cccc(C(F)(F)F)c1Cl)N1CCN(c2cccc(N3CCOCC3)c2Cl)C(=O)C1` [Example 79, 1-[2-chloro-3-(4-morpholinyl)phenyl]-4-{[2-chloro-3-(trifluoromethyl)phenyl]carbonyl}-2-piperazinone] and `Cc1c(N2CCOCC2)cccc1N1CCN(C(=O)c2cccc(C(F)(F)F)c2Cl)CC1=O` [Example 81, 4-{[2-chloro-3-(trifluoromethyl)phenyl]carbonyl}-1-[2-methyl-3-(4-morpholinyl)phenyl]-2-piperazinone] fall in the same range of IC50: 2.51 to 100 nM for the first, 2.51 to 100 nM for the second.

`CC(C)CN1CCN(C(=O)c2cccc(Cl)c2Cl)CC1=O` [Example 39, 4-[(2,3-dichlorophenyl)carbonyl]-1-(2-methylpropyl)-2-piperazinone] and `CC(C)N1CCN(C(=O)c2cccc(Cl)c2Cl)CC1=O` [Example 18, 4-[(2,3-Dichlorophenyl)carbonyl]-1-(1-methylethyl)-2-piperazinone] cannot be ordered by IC50: 2.51 to 100 nM for the first, 5.01 to 200 nM for the second.

`CCC(CC)N1CCN(C(=O)c2cccc(C(F)(F)F)c2Cl)CC1=O` [Example 47, 4-{[2-chloro-3-(trifluoromethyl)phenyl]carbonyl}-1-(1-ethylpropyl)-2-piperazinone] and `CN1CCN(C(=O)c2cccc(C(F)(F)F)c2Cl)CC1=O` [Example 35, 4-{[2-chloro-3-(trifluoromethyl)phenyl]carbonyl}-1-methyl-2-piperazinon] fall in the same range of IC50: 2.51 to 100 nM for the first, 2.51 to 100 nM for the second.

`N#Cc1cc(F)ccc1N1CCN(C(=O)c2cccc(C(F)(F)F)c2Cl)CC1=O` [Example 50, 2-(4-{[2-chloro-3-(trifluoromethyl)phenyl]carbonyl}-2-oxo-1-piperazinyl)-5-fluorobenzonitrile] and `CC(C)Oc1cc(F)ccc1N1CCN(C(=O)c2cccc(C(F)(F)F)c2Cl)CC1=O` [Example 57, 4-{[2-chloro-3-(trifluoromethyl)phenyl]carbonyl}-1-{4-fluoro-2-[(1-methylethyl)oxy]phenyl}-2-piperazinone] fall in the same range of IC50: 2.51 to 100 nM for the first, 2.51 to 100 nM for the second.

`O=C(c1cccc(Cl)c1Cl)N1CCN(c2cccc(Cl)c2)C(=O)C1` [Example 14, 1-(3-Chlorophenyl)-4-[(2,3-dichlorophenyl)carbonyl]-2-piperazinone] and `Cc1ccccc1N1CCN(C(=O)c2cccc(Cl)c2Cl)CC1=O` [Example 4, 4-[(2,3-Dichlorophenyl)carbonyl]-1-(2-methylphenyl)-2-piperazinone] fall in the same range of IC50: 5.01 to 200 nM for the first, 5.01 to 200 nM for the second.

`O=C(c1ccc(F)c(F)c1Cl)N1CCN(c2ccc(F)cc2Cl)C(=O)C1` [Example 32, 4-[(2-chloro-3,4-difluorophenyl)carbonyl]-1-(2-chloro-4-fluorophenyl)-2-piperazinone] and `Cc1cccc(C(=O)N2CCN(c3ccc(F)cc3Cl)C(=O)C2)c1Cl` [Example 30, 1-(2-chloro-4-fluorophenyl)-4-[(2-chloro-3-methylphenyl)carbonyl]-2-piperazinone] fall in the same range of IC50: 2.51 to 100 nM for the first, 2.51 to 100 nM for the second.

`Cc1ccc(Br)cc1N1CCN(C(=O)c2cccc(C(F)(F)F)c2Cl)CC1=O` [Example 53, 1-(5-bromo-2-methylphenyl)-4-{[2-chloro-3-(trifluoromethyl)phenyl]carbonyl}-2-piperazinone] and `Cc1ccccc1N1CCN(C(=O)c2cccc(C(F)(F)F)c2Cl)CC1=O` [Example 1, 4-{[2-Chloro-3-(trifluoromethyl)phenyl]carbonyl}-1-(2-methylphenyl)-2-piperazinone] cannot be ordered by IC50: 2.51 to 100 nM for the first, 5.01 to 200 nM for the second.

`CC(C)c1ccccc1N1CCN(C(=O)c2ccc(F)cc2Cl)CC1=O` [Example 26, 4-[(2-chloro-4-fluorophenyl)carbonyl]-1-[2-(1-methylethyl)phenyl]-2-piperazinone] and `CC(C)c1ccccc1N1CCN(C(=O)c2cccc(Cl)c2Cl)CC1=O` [Example 27, 4-[(2,3-dichlorophenyl)carbonyl]-1-[2-(1-methylethyl)phenyl]-2-piperazinone] fall in the same range of IC50: 2.51 to 100 nM for the first, 2.51 to 100 nM for the second.

`O=C(c1cccc(Cl)c1Cl)N1CCN(c2cc(N3CCOCC3)ccc2Cl)C(=O)C1` [Example 76, 1-[2-chloro-5-(4-morpholinyl)phenyl]-4-[(2,3-dichlorophenyl)carbonyl]-2-piperazinone] and `Cc1ccc(N2CCOCC2)cc1N1CCN(C(=O)c2cccc(Cl)c2Cl)CC1=O` [Example 54, 4-[(2,3-dichlorophenyl)carbonyl]-1-[2-methyl-5-(4-morpholinyl)phenyl]-2-piperazinone] fall in the same range of IC50: 2.51 to 100 nM for the first, 2.51 to 100 nM for the second.

`Cc1c(N2CCOCC2)cccc1N1CCN(C(=O)c2cccc(Cl)c2Cl)CC1=O` [Example 80, 4-[(2,3-dichlorophenyl)carbonyl]-1-[2-methyl-3-(4-morpholinyl)phenyl]-2-piperazinone] and `Cc1c(N2CCOCC2)cccc1N1CCN(C(=O)c2c(Cl)cc(Cl)cc2Cl)CC1=O` [Example 82, 1-[2-methyl-3-(4-morpholinyl)phenyl]-4-[(2,4,6-trichlorophenyl)carbonyl]-2-piperazinone] fall in the same range of IC50: 2.51 to 100 nM for the first, 2.51 to 100 nM for the second.

`O=C(c1c(Cl)cc(Cl)cc1Cl)N1CCN(c2cc(N3CCOCC3)ccc2Cl)C(=O)C1` [Example 77, 1-[2-chloro-5-(4-morpholinyl)phenyl]-4-[(2,4,6-trichlorophenyl)carbonyl]-2-piperazinone] and `O=C(c1ccc(Cl)cc1Cl)N1CCN(c2ccccc2Cl)C(=O)C1` [Example 8, 1-(2-Chlorophenyl)-4-[(2,4-dichlorophenyl)carbonyl]-2-piperazinone] cannot be ordered by IC50: 2.51 to 100 nM for the first, 5.01 to 200 nM for the second.

`COc1ccc(I)cc1N1CCN(C(=O)c2cccc(C(F)(F)F)c2Cl)CC1=O` [Example 64, 4-{[2-chloro-3-(trifluoromethyl)phenyl]carbonyl}-1-[5-iodo-2-(methyloxy)phenyl]-2-piperazinone] and `Cc1cc(F)c(Br)cc1N1CCN(C(=O)c2cccc(C(F)(F)F)c2Cl)CC1=O` [Example 45, 1-(5-bromo-4-fluoro-2-methylphenyl)-4-{[2-chloro-3-(trifluoromethyl)phenyl]carbonyl}-2-piperazinone] fall in the same range of IC50: 2.51 to 100 nM for the first, 2.51 to 100 nM for the second.

`Cc1ccc(-c2ccc(C)c(N3CCN(C(=O)c4cccc(C(F)(F)F)c4Cl)CC3=O)c2)cn1` [Example 74, 4-{[2-chloro-3-(trifluoromethyl)phenyl]carbonyl}-1-[2-methyl-5-(6-methyl-3-pyridinyl)phenyl]-2-piperazinone hydrochloride] and `Cc1ccc(-c2cccc(N3CCN(C(=O)c4cccc(C(F)(F)F)c4Cl)CC3=O)c2C)cn1` [Example 84, 4-{[2-chloro-3-(trifluoromethyl)phenyl]carbonyl}-1-[2-methyl-3-(6-methyl-3-pyridinyl)phenyl]-2-piperazinone] fall in the same range of IC50: 2.51 to 100 nM for the first, 2.51 to 100 nM for the second.

`Cc1c(N2CCCC2)cccc1N1CCN(C(=O)c2cccc(C(F)(F)F)c2Cl)CC1=O` [Example 75, 4-{[2-chloro-3-(trifluoromethyl)phenyl]carbonyl}-1-[2-methyl-3-(1-pyrrolidinyl)phenyl]-2-piperazinone] and `O=C(c1cccc(C(F)(F)F)c1Cl)N1CCN(c2ccc(F)cc2)C(=O)C1` [Example 12, 4-{[2-Chloro-3-(trifluoromethyl)phenyl]carbonyl}-1-(4-fluorophenyl)-2-piperazinone] cannot be ordered by IC50: 2.51 to 100 nM for the first, 5.01 to 200 nM for the second.

`CC(c1ccccc1)N1CCN(C(=O)c2cccc(C(F)(F)F)c2Cl)CC1=O` (stereo not shown) [Example 85, 4-{[2-chloro-3-(trifluoromethyl)phenyl]carbonyl}-1-(1-phenylethyl)-2-piperazinone] and `O=C1CN(C(=O)c2cccc(C(F)(F)F)c2Cl)CCN1CC1CC1` [Example 48, 4-{[2-chloro-3-(trifluoromethyl)phenyl]carbonyl}-1-(cyclopropylmethyl)-2-piperazinone] fall in the same range of IC50: 2.51 to 100 nM for the first, 2.51 to 100 nM for the second.

`O=C(c1cccc(Cl)c1Cl)N1CCN(c2cccc3ccccc23)C(=O)C1` [Example 22, 4-[(2,3-dichlorophenyl)carbonyl]-1-(1-naphthalenyl)-2-piperazinone] and `O=C(c1ccc(F)cc1Cl)N1CCN(c2cccc3ccccc23)C(=O)C1` [Example 23, 4-[(2-chloro-4-fluorophenyl)carbonyl]-1-(1-naphthalenyl)-2-piperazinone] fall in the same range of IC50: 2.51 to 100 nM for the first, 2.51 to 100 nM for the second.
